Measurements published in patent US20220111034A1, “VIRUS COMPOSITIONS” (priority 2019, published 2022).

System: JAM-A on Lec2-JAM-A cells
Assay: FD-based AFM with virus-functionalized tip on living Lec2-JAM-A cells, with glycan addition
Format: cell-based, human
Details: for T3SA+ adhesion events in the high force range (400 to 500 pN) / T3SA+ binding frequency after glycan injection / T3SA+ binding frequency before glycan injection: Lec2-JAM-A cells; for T3SA+ adhesion events in the high force range (400 to 500 pN): FIG. 8; for T3SA+ binding frequency after glycan injection / T3SA+ binding frequency before glycan injection: FIG. 9; for T3SA+ binding frequency before glycan injection: baseline of the same experiment
Procedure: Engineering and characterization of cell lines expressing JAM-A. Monolayers of CHO (ATCC, #CCL-61) and Lec2 (ATCC, #CRL-1736) cells were transduced with lentiviruses encoding a puromycin resistance gene and human JAM-A or a puromycin resistance gene alone. Transduced cells were selected for puromycin resistance by passaging twice in medium containing 20 μg ml^−1 puromycin. The concentration of puromycin used was the minimal concentration that yielded complete death of non-transduced CHO and Lec2 cells. Following selection for puromycin resistance, cells were further selected for cell surface expression of JAM-A using fluorescence-activated cell sorting (FACS). Cell-surface expression of JAM-A was detected using the monoclonal antibody, J10.4 (Liu et al. Human junction adhesion molecule regulates tight junction resealing in epithelia. J. Cell Sci. 2000, vol. 113, 2363-2374), and a fraction of cells with high JAM-A expression was collected and propagated using puromycin selection. In the ensuing Examples, cells transduced and selected for puromycin resistance alone will be referred to as CHO and Lec2 and those selected for puromycin resistance and JAM-A expression will be referred to as CHO-JAM-A and Lec2-JAM-A, respectively.
Correlative images were acquired on an AFM (Bioscope Catalyst and Bioscope Resolve, Bruker) operated in the PeakForce QNM mode (Nanoscope software v9.2) to conduct FD-based AFM and coupled to an inverted epifluorescence microscope (Zeiss Observer Z.1) as described (Newton et al. 2017, supra; Knoops et al. Specific Interactions Measured by AFM on Living Cells between Peroxiredoxin-5 and TLR4: Relevance for Mechanisms of Innate Immunity. Cell chemical biology 2018, vol. 25, 550-559, e553). A 40× oil objective (NA=0.95) was used. The AFM was equipped with a 150 μm piezoelectric scanner and a cell culture chamber allowing to control the temperature, the humidity and the CO2 concentration as described (Alsteens et al. 2017, supra). Overview images of cell surfaces (20-30 μm^2) were recorded at imaging forces of ˜500 pN using PFQNM-LC probes (Bruker) having tip lengths of 17 μm, tip radii of 65 nm, and opening angles of 15°. All fluorescence microscopy and FD-based AFM imaging experiments were conducted under cell culture conditions using the combined AFM and fluorescence microscopy chamber (FIG. 1a) at 37° C. in either Mem a, nucleosides or Ham's F12 culture medium, depending on the cell type. A gas mixture of synthetic air with 5% CO2 at 95% relative humidity using a gas humidifier membrane (PermSelect silicone) was infused at 0.1 L min^−1 into the microscopy chamber. The humidity was controlled using a humidity sensor (Sensirion). Cantilevers were first calibrated using the thermal noise method (Huffer & Bechhoefer. Calibration of atomic-force microscope tips. Review of Scientific Instruments 1993, vol. 64, 1868-1873), yielding values ranging from 0.095 to 0.135 N m^−1 for PFQNM-LC probes. The AFM tip was oscillated in a sinusoidal fashion at 0.25 kHz with a 750 nm amplitude in the PeakForce Tapping mode. The sample was scanned using a frequency of 0.125 Hz and 256 pixels per line (256 lines). AFM images and FD curves were analyzed using the Nanoscope analysis software (v1.7, Bruker), Origin, and ImageJ (v1.52e). Individual FD curves detecting unbinding events between the virus and cell surface were analyzed using the Nanoscope analysis and Origin software. The baseline of the retraction curve was corrected using a linear fit on the last 30% of the retraction curve. Using the force-time curve, the loading rate (slope) of each rupture event was determined (FIG. 1c). Optical images were analyzed using Zen Blue software (Zeiss) (Alsteens et al. 2017, Newton et al. 2017, Delguste et al. 2018a, Delguste et al. 2018b, all supra).
The live cell experiments were conducted in the same manner as described above by scanning a suitable field of cells, followed by adding 1 mM of the respective glycan to the culture medium. […]

Molecule | T3SA+ adhesion events in the high force range (400 to 500 pN) (1 mM glycan) | T3SA+ binding frequency after glycan injection (1 mM glycan) [%] | T3SA+ binding frequency before glycan injection [%] | T3SA+ adhesion events in the high force range after neuraminidase treatment (NA-treated cells, 1 mM glycan, FIG. 17) | increase in T3SA+ binding after glycan injection on neuraminidase-treated cells (neuraminidase 40 mUnit/mL for 1 h, then 1 mM glycan) [%]
sialyl-lacto-N-tetraose a [LSTa] | more adhesion events in the high force range | 4.8 | 3.8 |  | 
CC(=O)N[C@H]1[C@H](O[C@H]2[C@@H](O)[C@@H](CO)O[C@@H](O[C@H]3[C@H](O)[C@@H](O)C(O)O[C@@H]3CO)[C@@H]2O)O[C@H](CO)[C@@H](O[C@@H]2O[C@H](CO)[C@H](O)[C@H](O)[C@H]2O)[C@@H]1O (mixture of isomers) [LNnT, lacto-N-neotetraose, reference compound] | no significant change | 3.9 | 3.8 |  | 
CC(=O)N[C@H]1[C@H]([C@H](O)[C@H](O)CO)OC(O)(C(=O)O)C[C@@H]1O (some centres unmarked) [Neu5Ac, N-acetylneuraminic acid] | more adhesion events in the high force range | 4.9 | 3.9 | more adhesion events in the high force range | ~20
